Assay results from PubChem BioAssay (NCI).
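Following 48 hours of exposure in 96-well plates, responses at five concentrations were used to interpolate endpoints linearly. TGI: concentration producing complete growth inhibition.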

Tests used:
Assay in all cases: NCI tumour cell line growth inhibition, 48 h
[1] = system: EKVX NSCLC
[2] = system: RPMI-8226 leukemia
[3] = system: OVCAR-4 ovarian
[4] = system: OVCAR-5 ovarian
[5] = system: OVCAR-8 ovarian
[6] = system: HS 578T breast
[7] = system: SK-OV-3 ovarian
[8] = system: 786-0 renal
[9] = system: UACC-257 melanoma
[10] = system: A549 NSCLC
[11] = system: MOLT-4 leukemia
[12] = system: LOX IMVI melanoma
[13] = system: SNB-19 CNS
[14] = system: K-562 leukemia
[15] = system: MDA-MB-435
[16] = system: IGROV1 ovarian
[17] = system: MDA-N
[18] = system: CAKI-1 renal
[19] = system: MDA-MB-231 breast
[20] = system: SN12C renal
[21] = system: M14 melanoma
[22] = system: SF-295 CNS
[23] = system: T-47D breast
[24] = system: TK-10 renal
[25] = system: SK-MEL-28 melanoma
[26] = system: HL-60(TB) leukemia
[27] = system: SW-620 colon
[28] = system: COLO 205 colon
[29] = system: NCI-H460 lung
[30] = system: ACHN renal
[31] = system: OVCAR-3 ovarian
[32] = system: NCI-H522 lung
[33] = system: HCT-15 colon
[34] = system: PC-3 prostate
[35] = system: BT-549 breast
[36] = system: HCT-116 colon
[37] = system: SF-268 CNS
[38] = system: NCI/ADR-RES ovarian
[39] = system: NCI-H226 lung
[40] = system: KM12 colon
[41] = system: HT29 colon
[42] = system: UO-31 renal
[43] = system: HCC-2998 colon
[44] = system: DU-145 prostate
[45] = system: CCRF-CEM leukemia
[46] = system: HOP-62 NSCLC
[47] = system: UACC-62 melanoma
[48] = system: SK-MEL-5 melanoma
[49] = system: U251 CNS
[50] = system: SR leukemia
[51] = system: SF-539 CNS
[52] = system: SK-MEL-2 melanoma
[53] = system: NCI-H23 lung
[54] = system: SNB-75 CNS
[55] = system: RXF 393 renal
[56] = system: MCF7 breast
[57] = system: MALME-3M melanoma
[58] = system: HOP-92 NSCLC
[59] = system: A498 renal

Measured: TGI

Cc1cc(=O)oc2c(C)c3oc(CBr)c(Br)c3cc12
37.2 µM: [10]
97.7 µM: [5]
98.5 µM: [50]
64.6 µM: [2]
70 µM: [54]
42.5 µM: [22]
83.8 µM: [40]
58.7 µM: [20]
30.2 µM: [32]
72.6 µM: [23]
33.8 µM: [48]
52.1 µM: [27]
36.5 µM: [42]
31.6 µM: [18]
29.7 µM: [8]
36.1 µM: [16]
67.9 µM: [36]
70.7 µM: [43]
78.6 µM: [37]
49 µM: [29]
88.1 µM: [3]
28.8 µM: [12]
41.6 µM: [55]
37.6 µM: [47]
95.7 µM: [38]
50.3 µM: [21]
66.8 µM: [14]
80 µM: [4]
not listed: [57] | [58] | [59]
> 100 µM: all other assays above

O=c1c2ccccc2[nH]c(=S)n1-c1ccc(N=Nc2cccc3cc(O)ccc23)cc1
not listed: [59]
> 100 µM: all other assays above

CC(=O)C(=[N+]=[N-])C(=O)OCCOC(=O)C(=[N+]=[N-])C(C)=O
not listed: [3] | [18] | [27] | [28] | [32] | [38]
> 1 µM: all other assays above

N#Cc1c(N)nc2c(c1-c1ccc(Br)cc1)CSc1ccccc1-2
77.3 µM: [15]
92 µM: [45]
86.5 µM: [34]
68 µM: [18]
32.2 µM: [28]
50.2 µM: [58]
51.6 µM: [19]
78.1 µM: [47]
58.2 µM: [23]
85.6 µM: [39]
98.5 µM: [26]
73.8 µM: [55]
72.5 µM: [9]
61.1 µM: [2]
not listed: [1] | [4] | [22] | [30] | [32] | [43]
> 100 µM: all other assays above
